Measured values taken from ChEMBL document CHEMBL1201862, “PubChem BioAssay data set” (2004).
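Interpolation was linear, between the two tested concentrations surrounding the appropriate level; five concentrations were tested over 48 hours in 96-well plates. GI50: concentration for 50% inhibition of growth.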 Active and inactive are the calls of the source. Cut-off read from the data, not from the text of the source: active = GI50 up to about 1.1 µM and inactive = higher.

Columns and labels:
Assay in all cases: NCI anticancer screen, dose series, 48 h
786-0 = tested on: 786-0
A498 = tested on: A498
A549 = tested on: A549
CCRF-CEM = tested on: CCRF-CEM
DU-145 = tested on: DU-145
HL-60 = tested on: HL-60
HOP-92 = tested on: HOP-92
M14 = tested on: M14
MDA-MB-435 = tested on: MDA-MB-435
MOLT-4 = tested on: MOLT-4
NCI-H226 = tested on: NCI-H226
NCI-H522 = tested on: NCI-H522
OVCAR-4 = tested on: OVCAR-4
OVCAR-5 = tested on: OVCAR-5
OVCAR-8 = tested on: OVCAR-8
SF-295 = tested on: SF-295
SF-539 = tested on: SF-539
SW-620 = tested on: SW-620
TK-10 = tested on: TK-10
SNB-75 = tested on: SNB-75

Measured: GI50

CCCCCCCCCCCCCCCCOCC(O)CO (stereo not given)
inactive: 786-0 18.4 µM | A498 19.5 µM | A549 20.1 µM | CCRF-CEM 11.1 µM | DU-145 18.9 µM | HL-60 7.18 µM | HOP-92 21 µM | M14 22.8 µM | MDA-MB-435 17.4 µM | MOLT-4 13.3 µM | NCI-H226 18.7 µM | NCI-H522 16.8 µM | OVCAR-4 21 µM | OVCAR-5 19.8 µM | OVCAR-8 17.9 µM | SF-295 16.4 µM | SF-539 16.3 µM | SW-620 20.3 µM | TK-10 15.2 µM

CCNC(=O)Cc1nc2c(O)ncnc2n1C1OC(CO)C(O)C1O (stereo not given)
inactive: 786-0 > 100 µM | A498 > 100 µM | A549 > 100 µM | CCRF-CEM > 100 µM | DU-145 > 100 µM | HL-60 > 100 µM | HOP-92 > 100 µM | M14 > 100 µM | MDA-MB-435 > 100 µM | MOLT-4 > 100 µM | NCI-H226 > 100 µM | NCI-H522 > 100 µM | OVCAR-4 > 100 µM | OVCAR-5 > 100 µM | OVCAR-8 > 100 µM | SF-295 > 100 µM | SF-539 > 100 µM | SNB-75 > 100 µM | SW-620 > 100 µM | TK-10 > 100 µM

CC(=O)c1cc(I)c(O)c2ncccc12
inactive: 786-0 3.03 µM | A498 2.85 µM | A549 4.34 µM | CCRF-CEM 2.07 µM | DU-145 3.3 µM | HL-60 2.03 µM | HOP-92 2.07 µM | M14 1.97 µM | MDA-MB-435 4.09 µM | MOLT-4 2.42 µM | NCI-H226 2.33 µM | NCI-H522 3.6 µM | OVCAR-4 2.94 µM | OVCAR-5 > 10 µM | OVCAR-8 2.92 µM | SF-295 4.07 µM | SF-539 3.05 µM | SW-620 4.17 µM | TK-10 9.46 µM

Cc1oc(N)c(S(=O)(=O)c2cc3ccccc3[n+]([O-])c2N)c1C
inactive: 786-0 > 100 µM | A498 > 100 µM | A549 > 100 µM | DU-145 > 100 µM | HOP-92 > 100 µM | M14 > 100 µM | MDA-MB-435 > 100 µM | MOLT-4 > 100 µM | NCI-H226 > 100 µM | NCI-H522 > 100 µM | OVCAR-4 > 100 µM | OVCAR-5 > 100 µM | OVCAR-8 > 100 µM | SF-295 > 100 µM | SF-539 > 100 µM | SNB-75 > 100 µM | SW-620 > 100 µM | TK-10 > 100 µM

CCOP(=O)(CCCC(O)CNc1nc(N)nc(Cl)c1/N=N/c1ccc(Cl)cc1)OCC (stereo not given)
inactive: 786-0 5.27 µM | A498 6.7 µM | A549 10.6 µM | CCRF-CEM 3.21 µM | DU-145 6.14 µM | HL-60 1.75 µM | HOP-92 5.6 µM | MDA-MB-435 5.85 µM | MOLT-4 3.24 µM | NCI-H226 7.05 µM | NCI-H522 5.69 µM | OVCAR-4 4.45 µM | OVCAR-5 10.9 µM | OVCAR-8 8.47 µM | SF-295 7.46 µM | SF-539 9.25 µM | SNB-75 3.29 µM | SW-620 12.3 µM | TK-10 3.67 µM

Cc1cc(-n2c(/C=C/c3ccc(Cl)cc3)nc3cc(Cl)ccc3c2=O)on1
inactive: 786-0 1.47 µM | A498 2.31 µM | A549 14.1 µM | CCRF-CEM > 50 µM | DU-145 > 50 µM | HL-60 > 50 µM | HOP-92 16 µM | M14 12.7 µM | MDA-MB-435 14.2 µM | MOLT-4 > 50 µM | NCI-H226 12.4 µM | NCI-H522 23.2 µM | OVCAR-4 1.25 µM | OVCAR-5 > 50 µM | OVCAR-8 10.6 µM | SF-295 22 µM | SF-539 25.6 µM | SW-620 48 µM | TK-10 12.2 µM

[N-]=[N+]=NCc1cccc(Nc2cc(=O)[nH]c(=O)[nH]2)c1
inactive: 786-0 > 100 µM | A498 > 100 µM | A549 > 100 µM | CCRF-CEM > 100 µM | DU-145 > 100 µM | HL-60 > 100 µM | HOP-92 74 µM | M14 > 100 µM | MDA-MB-435 > 100 µM | MOLT-4 > 100 µM | NCI-H226 > 100 µM | NCI-H522 > 100 µM | OVCAR-5 > 100 µM | OVCAR-8 > 100 µM | SF-295 57.3 µM | SF-539 > 100 µM | SNB-75 > 100 µM | SW-620 > 100 µM | TK-10 > 100 µM

O=C(Cc1csc2[n+]1C(=O)/C(=C/c1ccc(Cl)cc1)S2)Nc1ccccc1
inactive: 786-0 25.1 µM | A498 15.7 µM | A549 24.1 µM | CCRF-CEM 23.8 µM | DU-145 31.4 µM | HL-60 20.2 µM | HOP-92 26.6 µM | M14 28.1 µM | MDA-MB-435 25.3 µM | NCI-H226 15.6 µM | NCI-H522 15.3 µM | OVCAR-4 30.3 µM | OVCAR-5 22.5 µM | OVCAR-8 40.7 µM | SF-295 17.5 µM | SF-539 27.8 µM | SNB-75 23.5 µM | SW-620 26.4 µM | TK-10 31.6 µM

O=C(O)C1C(Br)(c2ccccc2)C1(Br)c1ccccc1 (stereo not given)
inactive: 786-0 32.3 µM | A498 25.5 µM | A549 39 µM | DU-145 > 100 µM | HL-60 12.4 µM | HOP-92 42.7 µM | M14 48.2 µM | MDA-MB-435 41.2 µM | MOLT-4 15.2 µM | NCI-H226 27.2 µM | NCI-H522 17.6 µM | OVCAR-4 28.7 µM | OVCAR-5 58.9 µM | OVCAR-8 23 µM | SF-295 37.9 µM | SF-539 52.7 µM | SNB-75 35.3 µM | SW-620 31.4 µM | TK-10 33.7 µM

C(=N\c1ccc2c(c1)Cc1ccccc1-2)/c1ccccn1
inactive: 786-0 34.8 µM | A498 44.3 µM | A549 > 100 µM | CCRF-CEM 23 µM | DU-145 88.3 µM | HOP-92 > 100 µM | M14 > 100 µM | MDA-MB-435 77.8 µM | MOLT-4 23 µM | NCI-H226 > 100 µM | NCI-H522 26.7 µM | OVCAR-4 > 100 µM | OVCAR-5 > 100 µM | OVCAR-8 > 100 µM | SF-295 > 100 µM | SNB-75 67.6 µM | SW-620 44.6 µM | TK-10 42.7 µM

CN1COCc2c1ccc1cc3ccc4c(c3nc21)COCN4S(C)(=O)=O
inactive: 786-0 73.6 µM | A498 > 100 µM | A549 > 100 µM | CCRF-CEM > 100 µM | DU-145 > 100 µM | HOP-92 > 100 µM | M14 > 100 µM | MDA-MB-435 > 100 µM | MOLT-4 > 100 µM | NCI-H226 > 100 µM | NCI-H522 > 100 µM | OVCAR-4 > 100 µM | OVCAR-5 > 100 µM | OVCAR-8 > 100 µM | SF-295 > 100 µM | SNB-75 20 µM | SW-620 > 100 µM | TK-10 > 100 µM

CC(C)C1=CC23CCC4C(C)(C(=O)O)CCCC4(C)C2CC1C1C(=O)N(c2ccc(Cc4ccc(N5C(=O)C6C7CC8C9(C)CCCC(C)(C(=O)O)C9CCC8(C=C7C(C)C)C6C5=O)cc4)cc2)C(=O)C13 (stereo not given)
inactive: 786-0 10.9 µM | A498 8.51 µM | A549 3.72 µM | CCRF-CEM 5.41 µM | DU-145 10.3 µM | HL-60 9.35 µM | HOP-92 20.1 µM | M14 9.44 µM | MDA-MB-435 3.55 µM | MOLT-4 5.5 µM | NCI-H226 13.6 µM | NCI-H522 8.18 µM | OVCAR-4 14.4 µM | OVCAR-5 20.8 µM | OVCAR-8 5.26 µM | SF-539 4.16 µM | SW-620 11.4 µM | TK-10 15.6 µM

C[C@H](Nc1nc(N)c(N=O)c(=O)n1C)C(=O)O
inactive: 786-0 > 10 µM | A498 > 10 µM | A549 > 10 µM | CCRF-CEM > 10 µM | DU-145 > 10 µM | HL-60 > 10 µM | HOP-92 > 10 µM | M14 > 10 µM | MDA-MB-435 > 10 µM | MOLT-4 > 10 µM | NCI-H226 > 10 µM | NCI-H522 > 10 µM | OVCAR-4 > 10 µM | OVCAR-5 > 10 µM | OVCAR-8 > 10 µM | SF-295 > 10 µM | SF-539 > 10 µM | SNB-75 > 10 µM | SW-620 > 10 µM | TK-10 > 10 µM

Clc1ccc2c(NCCNc3ccnc4cc(Cl)ccc34)ccnc2c1
inactive: 786-0 14.3 µM | A498 16.9 µM | A549 18.5 µM | CCRF-CEM 14.6 µM | DU-145 22.8 µM | HL-60 14.6 µM | HOP-92 15.2 µM | M14 16.9 µM | MDA-MB-435 17.8 µM | MOLT-4 17.4 µM | NCI-H226 37.9 µM | NCI-H522 18.3 µM | OVCAR-4 20 µM | OVCAR-5 16.5 µM | OVCAR-8 19.7 µM | SF-295 13.3 µM | SF-539 12 µM | SNB-75 21.5 µM | SW-620 13.6 µM | TK-10 17.9 µM
